Source: patent publication US20080261955A1, “Use of Pharmaceutical Compositions of Lofepramine for the Treatment of Adhd, Cfs, Fm and Depression” (priority 2004, published 2008)
Like-named read-outs stand apart in the source and are kept apart here.

Assays:
ECG interval = details: rats infused with the antidepressant; cited from earlier work
hyperactivity (ADHD) = details: doses as low as 75 mg/day; cited from earlier work
[1] = test system: Hypothalamic-Pituitary-Adrenal axis; experiment: HPA axis activity in CFS; type: in vivo, human; details: along with symptomatic relief
Text: While not being bound by any one mechanisms of action, previous work by one of the co-inventors here, has supported the evidence that there is Hypothalamic-Pituitary-Adrenal axis under activity in CFS patients. (Scott […] and […]; Acta Psychiatr Scand 1998 June 97: 450-7).

Chronic Fatigue Syndrome = experiment: Example 3: lofepramine in Chronic Fatigue Syndrome patients, cross-over design; type: in vivo, human; details: 44 patients, doses up to 210 mg/day over 26 weeks
Protocol: Forty-four patients meeting the criteria for Chronic Fatigue Syndrome were recruited in a cross-over design. […] Patients were administered lofepramine at doses up to 210 mg/day over the 26 weeks of the study. Patients were assessed using the FibroFatigue Scale (interview scale) and the CDR battery of cognitive tests (computer based assessment of cognition). Other assessments included HADS and Clinical Global Improvement (CGI). Four CDR assessments and 9 Fibrofatigue assessments were carried out.

[2] = test system: serotonin synthesis in the brain; experiment: Serotonin synthesis in the brain
[3] = toxic levels similar to that found in the SSRI's
ADHD [4] = experiment: Example 2: lofepramine versus placebo in adult patients with ADHD (CAARS); type: in vivo, human; details: 20 adult patients, oral 140 to 280 mg/day, 3 months
Protocol: A study was carried out to access the efficacy of lofepramine compared to placebo in 20 adult patients with ADHD at a single study centre. Active treatment was for 3 months. Patients with DSM-IV diagnosis of ADHD were recruited. Patients were assessed using the patient-rated Connors Adult ADH Rating Scales (CAARS). Initially, there was a single blind placebo period between day 0 and week 3, and patients who responded to placebo were withdrawn. Oral administration of lofepramine (140 mg/day) was commenced from week 3 onwards. Patients showing little response to this dose and tolerable side effects were titrated upwards to 210 mg/day and then to 280 mg/day.

Sedation = details: in vivo
[5] = fatal poisoning / overdose; cited from earlier work
[6] = test system: noradrenaline reuptake versus serotonin (5HT) reuptake; experiment: NA:5HT relative potencies based on Ki data (Bolden-Watson and Richelson); type: biochemical; details: basis not stated
Text: The selectivity a drug for various receptors may be compared by use of comparative Ki's and not comparative IC 50 values. (Bolden-Watson, C and Richelson, E., Life Sci, (52), 1993, 1023-1029), which is hereby incorporated by reference.

dopamine D2 receptor = dopamine D2 receptor (Homo sapiens, UniProt P14416); experiment: Activity at the dopamine D2 receptor
DSM-IV ADHD = experiment: Example 1: case reports of ADHD patients on lofepramine; type: in vivo, human; details: for behaviour: child; for general behaviour and concentration: person
Protocol: Patient is a person with a diagnosis of DSM-IV ADHD. Their education was severely impacted by an inability to sustain attention for any length of time and they were also very disruptive in class. Their inability to sustain attention was causing difficulty at work. They were referred by their primary care physician. They were commenced on lofepramine 70 mg twice daily. […] The dose of lofepramine was increased to 70 mg three times daily. […] Within 48 hours their concentration deteriorated and they were once again in trouble at work. A week later the medication was recommenced and they have now remained well for approximately 4 months. They are performing effectively at work and their parents are happy with the situation. A child had been on methylphenidate for 2 years which was prescribed for ADHD characterised by poor concentration and impulsive behaviour. They stopped taking the medication and deteriorated. When they attended the clinic they were commenced on lofepramine 70 mg twice daily. […] This has been sustained for 4 months.

ADHD [7] = experiment: Two large well-controlled studies of atomoxetine, CAARS scores; type: in vivo, human; details: overall
Text: In the second study, these improvements were 30.1% vs. 19.6%, respectively. Overall these two studies have indicated a placebo response of about 20% and difference between active and placebo of about 10%. Moreover, atomoxetine is not a stimulant, a point that provides an effective marketing tool for this drug.

ADHD [8] = details: cited from earlier work
[9] = test system: ADD (as defined in DSM III); details: 31 patients treated with 4.6 mg/kg, children and adolescents; cited from earlier work
[10] = desipramine treatment; cited from earlier work

dopamine D2 receptor, sequence (P14416 whole entry, species assumed): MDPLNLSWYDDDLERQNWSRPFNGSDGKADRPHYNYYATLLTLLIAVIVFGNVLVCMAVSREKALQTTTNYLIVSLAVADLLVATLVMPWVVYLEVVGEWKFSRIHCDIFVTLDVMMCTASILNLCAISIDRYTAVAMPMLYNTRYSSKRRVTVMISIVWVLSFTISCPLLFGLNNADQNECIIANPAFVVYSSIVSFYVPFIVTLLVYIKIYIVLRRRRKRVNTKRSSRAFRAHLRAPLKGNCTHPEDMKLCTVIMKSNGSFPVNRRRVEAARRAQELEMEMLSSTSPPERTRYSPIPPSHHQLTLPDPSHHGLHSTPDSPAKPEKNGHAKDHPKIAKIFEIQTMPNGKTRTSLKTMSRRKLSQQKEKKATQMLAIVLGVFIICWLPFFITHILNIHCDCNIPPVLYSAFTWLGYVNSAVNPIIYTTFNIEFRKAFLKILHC

CN(C)CCCN1c2ccccc2CCc2ccccc21 [imipramine]
effect on ECG interval (ECG interval): prolong the ECG interval
time to begin to reduce hyperactivity (hyperactivity (ADHD)): 3 to 10 days

CN(CCCN1c2ccccc2CCc2ccccc21)CC(=O)c1ccc(Cl)cc1 [lofepramine]
HPA activity [1]: induces upregulation of HPA activity
FibroFatigue Scale, CDR cognitive tests, HADS and CGI (Chronic Fatigue Syndrome): significant improvement on all scales
serotonin synthesis in the brain [2]: up-regulate serotonin synthesis in the brain
effect on ECG interval (ECG interval): does not
cardiotoxicity [3]: very low cardiotoxicity
CAARS scores versus placebo (ADHD [4]): significant benefit over placebo
sedation (Sedation): does not induce sedation
fatalities per million prescriptions [5]: 1.3 per million prescriptions
NA:5HT ratio relative to that of desipramine [6]: about four
NE:5-HT ratio compared with milnacipran [6]: higher than that of milnacipran
activity at the D2 receptor (dopamine D2 receptor): potent activity
behaviour (DSM-IV ADHD; 70 mg three times daily, sustained for 4 months): major improvement
behaviour (DSM-IV ADHD; 70 mg twice daily): No immediate improvement
side-effects (DSM-IV ADHD; patient report): no side-effects
general behaviour and concentration (DSM-IV ADHD; 70 mg three times daily, sustained for 3 months): continued improvement
general behaviour and concentration (DSM-IV ADHD; 70 mg twice daily, after 1 week): significant improvement

CN(C)CCC=C1c2ccccc2CCc2ccccc21 [amitriptyline]
effect on ECG interval (ECG interval): prolong the ECG interval

CNCC[C@@H](Oc1ccccc1C)c1ccccc1 [atomoxetine]
difference between active and placebo in reduction of CAARS scores (ADHD [7]): about 10%
mean reduction of CAARS scores (ADHD [8]; first study, placebo 18.1%): 28.3%
mean reduction of CAARS scores (ADHD [8]; second study, placebo 19.6%): 30.1%

COc1ccc(C(CN(C)C)C2(O)CCCCC2)cc1 (stereo not drawn) [venlafaxine]
fatalities per million prescriptions [5]: 13.2 per million prescriptions

CNCCCN1c2ccccc2CCc2ccccc21 [desipramine]
patients with a significant response [9]: around 70%
effect on ECG interval (ECG interval): prolong the ECG interval
fatalities per million prescriptions [5]: 200.9 per million prescriptions
diastolic blood pressure, heart rate and ECG conductance [10]: asymptomatic and generally small increases
